# Assay results taken from patent publication US20240417428A1, “POLYPEPTIDE FOR INHIBITING TRPM8 AND USE THEREOF” (ZHEJIANG UNIVERSITY, priority 2021, published 2024).
# Where a SMILES comes first, the peptide text is derived from it.
# Key:
# [1] = system: oxaliplatin-induced mechanical allodynia; assay: Oxaliplatin-induced mechanical allodynia, von Frey test; assay type: in vivo, mice; details: 3.5 μg/20 μl i.pl., day 10 after oxaliplatin, compared to saline
# Procedure: Adult male CD1 mice (6-8 weeks old) were used as experimental animals for behavioral experiments and primary cultures of DRG neurons. Mice were raised in the condition of 12 h light/12 h dark of light cycle with adequate standard chow and water. All animal protocols were approved by the Institutional Animal Care and Use Committee (IACUC) of Zhejiang University.
# All of mice were habituated to the behavioral testing environment for 1-to-2 hours in 2-to-3 days before the behavioral testing. Single intraperitoneal (i.p.) injection of oxaliplatin (6 mg/kg body weight) was given to generate chemotherapy-induced neuropathic pain. Neuropathic pain behaviors were tested about 10 days after oxaliplatin injection.
# Mechanical allodynia was assessed by measuring paw withdrawal thresholds in von Frey test. The paw withdrawal thresholds of mice in the von Frey test were tested according to Dixon'sup-down method. […] The vonFrey hairs with different stiffness were selected in turn to simulate, with 5 s interval per two simulations, and total six simulations were completed, the paw withdrawal thresholds (PWT) of mice were assessed according to the responding amount table The von Frey test was respectively performed on day 10 pre- or post-treatment with Oxaliplatin, saline or 3.5 μg/20 μL DeC-1.2 was intraplantarly injected to assess its analgesic effect on oxaliplatin-induced allodynia.
# [2] = biological target: TRPM8 (Mus musculus, UniProt Q8R4D5); assay: Calcium imaging of primary cultured DRG neurons from oxaliplatin-treated mice; assay type: cell-based; design: endogenous in cells; host or cells: primary cultured dorsal root ganglion neurons from saline- or oxaliplatin-treated mice; details: 10 μM DeC-1.2, DRG neurons of oxaliplatin treated mice
# Procedure: Mice was deeply anaesthetized, decapitated and blood was removed, DRG tissue was dissected off quickly and placed in ice-cold PBS solution. After washing the blood, digestive enzyme (Collagenase A 20 mg/100 ml, Dispase II 300 mg/100 ml dissolved in PBS) was added and DRG was digested at 37° C. for 1 hour. The samples were centrifuged at 500 g for 5 min and the digested tissue was collected. When the enzyme solution was removed, an appropriate amount of DMEM medium (containing 10% FBS, 1× Pen/Strep) was added, and the single cell suspension was prepared by mechanical trituration. The samples were centrifuged at 500 g for 10 min. […]
# The primary-cultured DRG neurons were washed with a extracellular solution (ECS, 140 mM NaCl, 5 mM KCl, 1 mM MgCl2, 1.8 mM CaCl2), 10 mM Glucose, 15 mM HEPES, pH=7.4) then incubated in calcium dye incubation solution (2 μM […], 0.05% Pluronic F-127 in ECS) for 30 min. The cell images were continuously and alternately excited by a high-speed continuous monochromatic light source under the excitation wavelength of 340 nm and 380 nm, and recorded in full vision under 20× object lens by Visiview software Intracellular fluorescence intensity changes were continuously recorded at 0.5 fps via a high-speed scanning camera Flash4.0LT. The ratio of fluorescence signal at 340 nm/380 nm represents the intensity of calcium signal. […]
# Chain of TRPM8 (Q8R4D5 whole entry): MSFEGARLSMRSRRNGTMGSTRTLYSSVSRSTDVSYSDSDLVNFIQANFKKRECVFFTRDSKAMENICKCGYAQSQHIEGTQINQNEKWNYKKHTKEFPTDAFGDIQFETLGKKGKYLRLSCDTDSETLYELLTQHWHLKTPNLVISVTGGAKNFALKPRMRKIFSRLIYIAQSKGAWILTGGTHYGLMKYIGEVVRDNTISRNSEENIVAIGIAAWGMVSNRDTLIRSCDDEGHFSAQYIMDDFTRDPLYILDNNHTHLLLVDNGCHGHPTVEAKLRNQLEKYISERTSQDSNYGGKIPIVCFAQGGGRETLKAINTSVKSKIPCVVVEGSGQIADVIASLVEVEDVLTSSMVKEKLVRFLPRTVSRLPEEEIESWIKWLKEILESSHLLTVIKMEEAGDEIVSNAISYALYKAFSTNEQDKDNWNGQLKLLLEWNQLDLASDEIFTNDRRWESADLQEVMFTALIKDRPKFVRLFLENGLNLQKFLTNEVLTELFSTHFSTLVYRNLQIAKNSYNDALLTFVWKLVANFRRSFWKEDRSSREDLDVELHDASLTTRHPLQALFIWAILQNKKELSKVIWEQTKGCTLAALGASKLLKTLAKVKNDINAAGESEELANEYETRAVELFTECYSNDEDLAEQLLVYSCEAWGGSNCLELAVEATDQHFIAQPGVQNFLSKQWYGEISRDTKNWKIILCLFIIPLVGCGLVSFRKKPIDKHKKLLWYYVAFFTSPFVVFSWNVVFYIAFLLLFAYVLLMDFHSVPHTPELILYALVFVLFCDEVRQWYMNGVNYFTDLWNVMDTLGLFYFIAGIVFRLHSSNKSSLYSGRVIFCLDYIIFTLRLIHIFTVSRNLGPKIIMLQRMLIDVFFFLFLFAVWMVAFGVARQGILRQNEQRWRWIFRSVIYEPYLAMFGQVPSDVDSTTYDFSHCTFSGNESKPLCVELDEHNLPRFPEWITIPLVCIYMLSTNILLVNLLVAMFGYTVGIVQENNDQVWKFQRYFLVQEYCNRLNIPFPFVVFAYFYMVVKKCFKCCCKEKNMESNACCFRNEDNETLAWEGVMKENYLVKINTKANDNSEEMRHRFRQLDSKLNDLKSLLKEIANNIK
structure (smiles),measurement,setting,value
"C[C@@H]1NC(=O)[C@H](CCCNC(=N)N)NC(=O)[C@H](CC(=O)O)NC(=O)[C@H](CCCNC(=N)N)NC(=O)[C@H](CCCNC(=N)N)NC(=O)[C@@H](N)CSSC[C@@H](C(=O)O)NC(=O)[C@H](CCCNC(=N)N)NC(=O)[C@H](CCC(N)=O)NC(=O)[C@H](CCCNC(=N)N)NC(=O)[C@H](Cc2ccc(O)cc2)NC(=O)[C@H](Cc2c[nH]cn2)NC(=O)[C@H](CCCNC(=N)N)NC1=O [DeC-1.2, CRRDRARHYRQRC] (HELM PEPTIDE1{C.R.R.D.R.A.R.H.Y.R.Q.R.C}$PEPTIDE1,PEPTIDE1,1:R3-13:R3$$$V2.0; N-terminus and C-terminus assumed)",paw withdrawal threshold in von Frey test,[1],did not change paw withdrawal threshold
same,amplitude of calcium influx induced by menthol,[2],significantly inhibit
same,percentage of positive reaction cells in response to menthol,[2],significantly inhibit
